Values after ≈ are worked out from the molar mass of the structure shown. Read-outs that look alike come from different tables or passages of the source.
What was measured:
[1] = Plasma stability (Table 2B); conditions: 30 min
HT29 [2] = experiment: Clonogenic assay, hypoxia vs normoxia (Table 1B); conditions: for IC90: Homo sapiens
NCI-H460 cells [3] = experiment: Clonogenic assay - oxygen dependence; conditions: Homo sapiens
NCI-H460 cells [4] = experiment: Antiproliferation assay - oxygen dependence; format: cell-based, human
Description: . […] The calculated IC50 values (μM) are tabulated in Table Y1 (H460 cells) or Table Y2 (HT29 cells) below.

in vivo = conditions: 50 mg/kg
H460 cell line = experiment: Anti-proliferation assay, hypoxia vs normoxia (Table 1A); conditions: for IC50: Homo sapiens; for HCR P: ratio of IC50 in normoxia and hypoxia
[5] = Pharmacokinetics after intravenous or intraperitoneal administration in mice (Table 2B); conditions: plasma, 50 mg/kg
human H460 cells = experiment: Clonogenic survival assay, hypoxia vs normoxia (Table 1A); conditions: for IC90: Homo sapiens; for HCR C: ratio of IC90 in normoxia and hypoxia
HT29 cells = experiment: Antiproliferation assay (Alamar Blue), anoxia vs air; conditions: Homo sapiens, HT-29, 2 h
[6] = test system: mouse (MLM) liver microsomal proteins; format: in vitro ADME; conditions: Table 2B
HT29 [7] = experiment: Anti-proliferation assay, hypoxia vs normoxia (Table 1B); conditions: for IC50: Homo sapiens
NCI-H460 cells [8] = experiment: Antiproliferation assay (Alamar Blue), anoxia vs air
[9] = 25 mg/kg i.p., 10% PEG, CD-1 mice
DX-5 = experiment: Anti-proliferation assay, hypoxia vs normoxia (Table 1B)
MES-SA/Dx5 cells = experiment: Antiproliferation assay (Alamar Blue), anoxia vs air; conditions: Homo sapiens, MES-SA/Dx5, 2 h
[10] = test system: H460 lung carcinoma spheroids; experiment: Spheroid model, clonogenic survival; conditions: Homo sapiens, NCI-H460, 2 h, read-out: IC90 H460 Spheroid 10% O2
[11] = test system: H460 cells exposed as monolayers; experiment: Clonogenic survival of monolayer cells (Example 35); conditions: Homo sapiens, NCI-H460, 2 h
[12] = format: physicochemical; conditions: glassy carbon, Ag/AgCl reference
[13] = Solubility in saline at room temperature; format: physicochemical; conditions: saline or isotonic
spheroids = experiment: Spheroid combination with cisplatin or daunorubicin, clonogenic survival; format: cell-based, human; conditions: Homo sapiens, 2 h exposure, read-out: IC50 (μM), spheroids, daunorubicin combination experiment
Description: The phosphoramidate alkylator prodrug was combined simultaneously with cisplatin or daunorubicin and the spreroids exposed for 2 h to the combination, followed by measurement of clonogenic survival.

[14] = HT-29, read-out: HT29 C H (clonogenic IC90, hypoxia)
[15] = Homo sapiens, NCI-H460, read-out: IC50 in H460 cells, 0.1% O2
[16] = Homo sapiens, NCI-H460, read-out: IC50 in H460 cells, 0.6% O2
[17] = Homo sapiens, NCI-H460, read-out: IC50 in H460 cells, 1% O2
[18] = Homo sapiens, NCI-H460, read-out: IC50 in H460 cells, Air
[19] = Homo sapiens, NCI-H460, read-out: IC50 in H460 cells, N2
[20] = NCI-H460, read-out: Hypoxia P (proliferation IC50)
[21] = NCI-H460, read-out: Normoxia P (proliferation IC50)
[22] = CD-1, Balb/c for Compound 1, mouse, ip
[23] = CD-1, Balb/c for Compound 1, mouse, iv
[24] = NCI-H460, read-out: Hypoxia C (clonogenic IC90)
[25] = NCI-H460, read-out: Normoxia C (clonogenic IC90)
[26] = HT-29, read-out: HT29 P H (proliferation IC50, hypoxia)
[27] = Homo sapiens, NCI-H460, 2 h, read-out: IC50 H460 Air, air, 2 h exposure
[28] = Homo sapiens, NCI-H460, 2 h, read-out: IC50 H460 Anoxia, anoxia, 2 h exposure

In the case of `O=[N+]([O-])c1ccc(COP(=O)(NCCCl)NCCCl)o1` [Compound 23], the “Plasma stability (% at 30 min)” value [1] is reported as 84%, the IC90 (HT29 [2]; [14]) is reported as 2 µM and the IC90 (NCI-H460 cells [3]; NCI-H460, read-out: IC90 H460 0.6% O2) is reported as 0.6 µM. For the same molecule, the IC90 (NCI-H460 cells [3]; NCI-H460, read-out: IC90 H460 Air) was 5 µM, the IC90 (NCI-H460 cells [3]; NCI-H460, read-out: IC90 H460 N2) was 0.3 µM and the IC50 (NCI-H460 cells [4]; [15]) was 5 µM. The IC50 (NCI-H460 cells [4]; [16]) was 6 µM, the IC50 (NCI-H460 cells [4]; [17]) was 5 µM and the IC50 (NCI-H460 cells [4]; [18]) was 5 µM. For the same molecule, the IC50 (NCI-H460 cells [4]; [19]) was 0.05 µM, the Cmax (in vivo; CD-1, mouse, ip) was 8500 ng/mL and the Tmax (in vivo; CD-1, mouse, ip) was 5 min. For the same molecule, the half-life (in vivo; CD-1, mouse, ip) was 9.6 min, the Cmax (in vivo; CD-1, mouse, iv) was 7800 ng/mL and the Tmax (in vivo; CD-1, mouse, iv) was 5 min. For the same molecule, the half-life (in vivo; CD-1, mouse, iv) was 8.87 min, the IC50 (H460 cell line; [20]) was 0.04 µM and the IC50 (H460 cell line; [21]) was 5 µM. The “HCR P” value (H460 cell line) was 125, the clearance ([5]; CD-1 (Compounds 5, 23, 36), Balb/c (Compound 1), mouse, iv) was 368 mL/min/kg and the AUC ([5]; CD-1, mouse, ip) was 3500 ng·h/mL. It also gave a Cmax [5, 22] of 8500 ng/mL, an AUC [5, 23] of 2300 ng·h/mL and a Cmax [5, 23] of 7800 ng/mL. It also gave a Vd [5, 23] of 3.3 L/kg, a half-life [5, 23] of 9 min and a half-life ([5]; mouse, ip) of 9.6 min. For the same molecule, the IC90 (human H460 cells; [24]) was 0.2 µM, the IC90 (human H460 cells; [25]) was 10 µM and the “HCR C” value (human H460 cells) was 50. The IC50 (HT29 cells; read-out: IC50 HT29 Anoxia) was 7.5 µM, the “Metabolic stability (MLM) (% at 30 min)” value [6] was 71% and the IC50 (HT29 [7]; [26]) was 7.5 µM.

`CC(OP(=O)(NCCBr)NCCBr)c1ncc([N+](=O)[O-])n1C` (centres unmarked) [Compound 85] gave an IC50 (NCI-H460 cells [8]; read-out: IC50 H460 Anoxia, anoxia, 2 h exposure) of 0.7 µM, a Cmax [9] of 3930 ng/mL and a Tmax [9] of 5.00 min. It also gave a half-life [9] of 10.0 min.

For `Cn1c(COP(N)(=O)N(CCCl)CCCl)cnc1[N+](=O)[O-]` (centres unmarked) [Compound 1], the “Plasma stability (% at 30 min)” value [1] was 100%, the “HT29 HCR C” value (HT29 [2]) was greater than 100 and the IC90 (HT29 [2]; [14]) was 0.4 µM. The IC90 (HT29 [2]; HT-29, read-out: HT29 C N (clonogenic IC90, normoxic)) was 100 µM, the IC50 (NCI-H460 cells [8]; [27]) was 72 µM and the IC50 (NCI-H460 cells [8]; [28]) was 0.4 µM. The IC50 (NCI-H460 cells [4]; Homo sapiens, NCI-H460, read-out: IC50 in H460 cells, 0.3% O2) was 10 µM, the IC50 (NCI-H460 cells [4]; [16]) was 7 µM and the IC50 (NCI-H460 cells [4]; [17]) was 50 µM. For the same molecule, the IC50 (NCI-H460 cells [4]; [18]) was 100 µM, the IC50 (NCI-H460 cells [4]; [19]) was 0.3 µM and the “DX-5 HCR” value (DX-5) was greater than 100. It also gave an IC50 (DX-5; read-out: DX-5 P H (proliferation IC50, hypoxia)) of 1 µM, an IC50 (DX-5; read-out: DX-5 P N (proliferation IC50, normoxic)) greater than 100 µM and an IC50 (MES-SA/Dx5 cells; read-out: IC50 MES-SA/Dx5 Air) greater than 100 µM. The IC50 (MES-SA/Dx5 cells; read-out: IC50 MES-SA/Dx5 Anoxia) was 1 µM, the IC90 [10] was greater than 100 µM and the Cmax (in vivo; Balb/c, mouse, ip) was 29900 ng/mL. The Tmax (in vivo; Balb/c, mouse, ip) was 15 min, the AUC (in vivo; Balb/c, mouse, iv) was 12500 ng·h/mL and the Cmax (in vivo; Balb/c, mouse, iv) was 35000 ng/mL. It also gave a Tmax (in vivo; Balb/c, mouse, iv) of 5 min, a half-life (in vivo; Balb/c, mouse, iv) of 15.3 min and an IC50 (H460 cell line; [20]) of 0.4 µM. The IC50 (H460 cell line; [21]) was 72 µM, the “HCR P” value (H460 cell line) was 180 and the Cmax [5, 22] was 29900 ng/mL. For the same molecule, the AUC [5, 23] was 12500 ng·h/mL, the Cmax [5, 23] was 35000 ng/mL and the Vd [5, 23] was 1.48 L/kg. It also gave a half-life [5, 23] of 15.6 min, a half-life ([5]; mouse, ip) of 15 min and an IC90 (human H460 cells; [24]) of 0.35 µM. The IC90 (human H460 cells; [25]) was 75 µM, the “HCR C” value (human H460 cells) was 200 and the IC50 (HT29 cells; read-out: IC50 HT29 Air) was greater than 100 µM. For the same molecule, the IC50 (HT29 cells; read-out: IC50 HT29 Anoxia) was 50 µM, the IC90 ([11]; read-out: IC90 H460 Monolayer Air) was 75 µM and the IC90 ([11]; read-out: IC90 H460 Monolayer N2) was 0.35 µM. For the same molecule, the “HT29 HCR P” value (HT29 [7]) was greater than 2, the IC50 (HT29 [7]; [26]) was 50 µM and the IC50 (HT29 [7]; HT-29, read-out: HT29 P N (proliferation IC50, normoxic)) was 100 µM. For the same molecule, the “Reduction Potentials, 100 mV/sec” value ([12]; scan rate 100 mV/sec) was −596 mV and the “Reduction Potentials, 10,000 mV/sec” value ([12]; scan rate 10,000 mV/sec) was −638 mV.

In the case of `Cn1c([N+](=O)[O-])cnc1COP(=O)(NCCCl)NCCCl` [Compound 10], the IC50 (NCI-H460 cells [8]; [27]) is reported as greater than 100 µM, the IC50 (NCI-H460 cells [8]; [28]) is reported as no less than 100 µM and the IC50 (NCI-H460 cells [4]; [15]) is reported as greater than 100 µM. The IC50 (NCI-H460 cells [4]; [16]) was greater than 100 µM, the IC50 (NCI-H460 cells [4]; [17]) was greater than 100 µM and the IC50 (NCI-H460 cells [4]; Homo sapiens, NCI-H460; read-out: IC50 in H460 cells, Air) was greater than 100 µM. The IC50 (NCI-H460 cells [4]; Homo sapiens, NCI-H460; read-out: IC50 in H460 cells, N2) was greater than 100 µM, the IC50 (H460 cell line; [20]) was 100 µM and the IC50 (H460 cell line; [21]) was greater than 100 µM. The “HCR P” value (H460 cell line) was greater than 1 and the solubility [13] was 10000 µg/mL (≈ 27.8 mM).

Molecule `COc1cccc2c1C(=O)c1c(O)c3c(c(O)c1C2=O)C[C@@](O)(C(C)=O)C[C@@H]3O[C@H]1C[C@H](N)[C@H](O)[C@H](C)O1` [Daunorubicin, reference compound] has an IC50 (spheroids) of 17 µM, an IC90 [10] of 19 µM and an IC90 ([11]; read-out: IC90 H460 Monolayer (oxygen column not identifiable)) of 0.16 µM.

From patent US8507464B2, “Phosphoramidate alkylator prodrugs” (Threshold Pharmaceuticals, Inc., priority 2005, dated 2013)
